The values that follow come from patent US7674826B2, “Use of a nutraceutical compositions in animal feed” (DSM IP Assets B.V., priority 2006, dated 2010).

Series [1] has as its system growing-fattening pig. Description: Bone resistance: maximal breaking force of metacarpal diaphysis sections under compression, after long-term feeding. It counts as in vivo. The following applies: for Resistance (Newton at the breaking point), right metacarpals: mean ± SD. The source says:
The term “bone resistance” as used herein denotes the maximal force in measured in Newton (N) necessary to break the bone determined by a compression machine.
(§1) Environment humidity percentage throughout the experiment was 50%. […] Both diets were in mash form.
(§2) All the diets were given in a mash form.
(§3) At the end of the observation all the animals were slaughtered after electronarcosis for the determination of the bone resistance and mineralization. The collected bones were the right internal and external metacarpal. Samples were prepared from each of the collected bones immediately after slaughter. After careful removal of the soft tissue, a diaphysis section was obtained by sawing each bone. The obtained sections of about 3.5-cm long were immediately subjected to compression in order to determine the force in Newton necessary to break them (maximal-breaking force at the fracture point). The measurements were performed with a LR10K compression machine, using a XLC/10K/A1 force captor and a compression device TH23-196/AL (Lloyd Instruments, Fareham, UK). The broken bones were then dried in a drying oven at 105° C. during 24 hours and the dry matter (DM) was used for the determination of ash content, which was measured after 48 h incineration at 550° C. in a muffle furnace.
(§4) Statistical treatment of the results involved the calculation of the mean and of the standard deviation as well as a two-factor hierarchical analysis of variance. The mathematical model was: Yijk=μ+Ai+Bij+Zijk, where μ is the mean, Ai is the diet effect, Bij is the combined effect of the diet and animal or pen and Zijk is the residual term. The analysis of variance was followed by a Duncan multiple range test when a significant Ai effect without Bij effect was observed (Statistical methods, 8th edition, Iowa University Press, Ames, Snedecor and Cochran, 1989). These calculations were performed using the Statistical Analysis System (SAS, 1990).

Another series has as its system pigs. The following applies: diets with 0.5% or 1% benzoic acid, 32 + 91 days; statement covers all animals. On the procedure: Room temperature was initially 27° C. and was lowered weekly by about 2° C. until 21-22° C.
Series [2] concerns growing-fattening pig. Description: Bone mineralization: ash content of dried metacarpal bone after incineration, after long-term feeding. It counts as in vivo. The following applies: for Mineralization (% of ash in DM), right metacarpals: mean ± SD of 32 measurements. Here is the method:
The term “bone mineralization” as used herein denotes the percentage of ash after incineration of the bone compared to the dried bone matter (DM). Dry matter is defined as the weight of the bone sample after 24 hour in a drying oven compared to the initial weight of the sample.
as §1, §2, §3, §4

Where [3] appears, read: group B2: 0% 32 days, then 1% benzoic acid 91 days.
The mark [4] stands for this setting: group C2: 0.5% 32 days, then 0.5% benzoic acid 91 days.
The mark [5] stands for this setting: group D2: 0.5% 32 days, then 1% benzoic acid 91 days.

In the case of `O=C(O)c1ccccc1` [benzoic acid], the “Bone resistance versus controls (in words)” value with growing-fattening pig [1] (all the supplemented groups (B2, C2, D2)) is recorded as “significantly increased”. The “Resistance (Newton at the breaking point), right metacarpals” value with growing-fattening pig [1] (group B2: 0% benzoic acid in diet 32 days, then 1% for 91 days) was 625 ± 163^(2)bd Newton; in the series with growing-fattening pig [1] (group C2: 0.5% benzoic acid in diet 32 days, then 0.5% for 91 days) it was 621 ± 172^(2)d Newton; in the series with growing-fattening pig [1] (group D2: 0.5% benzoic acid in diet 32 days, then 1% for 91 days) it was 597 ± 192^(2)d Newton. Moreover, the “Natural mortality during the experiment” value in the series with pigs is “no natural mortality was observed”. Besides, in the series with pigs, the “Symptoms of illness during the experiment” value is reported as “did not present any symptoms of illness”. In addition, the “Mineralization relative to controls (A2 = 100)” value in the series with growing-fattening pig [2] (setting [3]), in the series with growing-fattening pig [2] (setting [4]) and with growing-fattening pig [2] (setting [5]) was “(102)” in each case. The “Mineralization (% of ash in DM), right metacarpals” value is recorded as 60.26 ± 1.31^(1)d % of ash in DM in the series with growing-fattening pig [2] (setting [3]), 60.06 ± 1.33^(1)cd* % of ash in DM in the series on growing-fattening pig [2] (setting [4]) and 60.14 ± 1.09^(1)d % of ash in DM in the series with growing-fattening pig [2] (setting [5]). Further, the “Ash content of the bones versus controls (in words)” value in the series on growing-fattening pig [2] (group C2 (0.5% benzoic acid throughout), P<0.07) was “numerically higher”; with growing-fattening pig [2] (groups B2 and D2 (1% benzoic acid during 91 days)), “significantly higher”.
